The values below come from patent US3933838A, “5-Substituted 2-amino-4-arylthiazoles” (Instituto Luso Farmaco d'Italia S.r.l., priority 1972, dated 1976).

Data set [1] deals with mice. In words: analgesic action, stretching acetic acid, mice. The format is in vivo. To be noted: oral; for ED50: Mus musculus. The text has this: (§1) The analgesic action has been assessed in rats (Arch. int. Pharmacodyn. 1957, 111 : 409) and in mice (Boll. Chim. Farm. 1968, 107 : 29), the antipyretic action in rats (J. Pharmacol. exp. Ther. 1963, 141 : 369); and the anti-cough action in guinea pigs made to inhale 4% ammonia.
(§2) Whenever possible the ED50 values have been calculated.

Data set [2] concerns rats. In words: LD50 rats. The format is in vivo. To be noted: oral.
The next data set in a line: LD50 rats. To be noted: rat, in vivo. Type of data set: in vivo.
Data set [3] concerns mice. Put plainly: analgesic action, tail clip, mice. The format is in vivo. To be noted: oral.
Source text: as §1, §2

Data set [4] has as its system rats. In words: analgesic action, Randall Selitto, rats. Type of data set: in vivo. The settings on record: oral; for ED50: Rattus norvegicus.
Source text: as §1, §2

For data set [5], the system named is adult rats. In words: anti-inflammatory action, carragenin oedema test in rats. The format is in vivo. The settings on record: for ED50: Rattus norvegicus, read-out: anti-inflammatory action rats ED50, carrageenin oedema.
Source text: (§3) The anti-inflammatory action has been studied in adult rats by using the carragenin oedema test (Proc. Soc. exp. Biol. Med. 1962, 111 : 544) and the granuloma from an extraneous substance (J. Amer. Pharm. Ass., Sci. Ed. 1957, 46 : 515).
as §2

Another data set in a line: LD50 mice. To be noted: mouse, in vivo.
For data set [6], the system named is adult rats. In words: anti-inflammatory action, granuloma from an extraneous substance in rats. Type of data set: in vivo. The settings on record: Rattus norvegicus, 168 h; oral × 7 days.
Source text: as §3, §2

Data set [7] has as its system rats. In words: antipyretic action in rats. The format is in vivo. To be noted: oral.
Source text: as §1, §2

The next data set concerns guinea pigs. In words: anti-cough action in guinea pigs made to inhale 4% ammonia. Type of data set: in vivo. The settings on record: intraperitoneal.
Source text: as §1, §2

Data set [8] has as its system rats. Put plainly: anti-ulcer action in rats kept without food for 24 hours and motionless for 4 hours. The format is in vivo. To be noted: 10 mg/kg intraperitoneal. As for the experimental part: The anti-ulcer property has been studied in rats kept without food for 24 hours and motionless for 4 hours (Therapie 1960, 15 : 1096).
Setting [9] is: intraperitoneal, 200 mg/kg maximum dose.

Where only a bound is given, the exact number is not on record here.

Take `O=C(O)Cc1sc(Nc2ccccc2)nc1-c1ccc(Cl)cc1` [LR 330, (2-phenylamino-4-p-chlorophenyl-thiazol-5-yl)-acetic acid]: the ED50 was found to be 75 mg/kg in the data set with mice [1]; 200 mg/kg in the data set with rats [4]; 75 mg/kg with adult rats [5] (ip, intraperitoneal); 400 mg/kg in the data set with adult rats [5] (oral); 400 mg/kg in the data set on adult rats [6]. Further, the 50% lethal dose (LD50) is over 3000 mg/kg with rats [2]; over 1000 mg/kg in “LD50 rats” (ip, intraperitoneal); over 2000 mg/kg in the data set “LD50 rats” (po); over 1000 mg/kg in the data set “LD50 mice” (ip, intraperitoneal); over 3000 mg/kg in “LD50 mice” (oral). For the same compound, in the data set with mice [3] (200 mg/kg maximum dose), the “tail clip, effect at maximum dose administered” value (from here on “tail clip, effect”) was “.phi”. The “anti-pyretic action, effect at maximum dose administered” value (from here on “anti-pyretic action, effect”) with rats [7] (200 mg/kg maximum dose) is recorded as “.phi”. Also, the “anti-coughing action, effect at maximum dose administered” value (from here on “anti-coughing action, effect”) in the data set on guinea pigs (200 mg/kg maximum dose) was “.phi”.
Regarding `Nc1nc(-c2ccc(Cl)cc2)c(CC(=O)O)s1` [LR 331, (2-amino-4-p-chlorophenyl-thiazol-5-yl)-acetic acid], the ED50 in the data set on mice [1] was 132 mg/kg; in the data set on adult rats [5] (ip, intraperitoneal) it was 140 mg/kg; in the data set on adult rats [5] (oral), 300 mg/kg; with adult rats [6] it was 300 mg/kg. In addition, the 50% lethal dose (LD50) is 840 mg/kg in “LD50 rats” (ip, intraperitoneal); over 1000 mg/kg in “LD50 rats” (po); 800 mg/kg in the data set “LD50 mice” (ip, intraperitoneal); over 5000 mg/kg in the data set “LD50 mice” (oral). Further, the “anti-ulcer action, protected rats in %” value with rats [8] is given as 30%. For the same compound, the “anti-ulcer action, reduction in number of ulcers in %” value (“anti-ulcer action, reduction … in %” for short) in the data set with rats [8] is 52%. Also, the “tail clip, effect” value with mice [3] (175 mg/kg maximum dose) is “.phi”. For the same compound, the “Randall Selitto, effect at maximum dose administered” value in the data set on rats [4] (175 mg/kg maximum dose) came to 15%. Besides, in the data set with rats [7] (400 mg/kg maximum dose), the “anti-pyretic action, effect” value is given as “.phi”. For the same compound, in the data set on guinea pigs (50 mg/kg maximum dose), the “anti-coughing action, effect” value was found to be 17%.
Turning to `O=C(O)Cc1sc(NC(=O)Nc2ccccc2)nc1-c1ccc(Cl)cc1` [LR 364, [2-(phenylamino-carbonylamino)-4-p-chlorophenyl-thiazol-5-yl]-acetic acid], the “stretching acetic acid, effect at maximum dose administered” value (from here on “stretching acetic acid, effect”) in the data set on mice [1] (200 mg/kg maximum dose) came out at 31%. In the data set with rats [8], the “anti-ulcer action, protected rats in %” value was 30% and the “anti-ulcer action, reduction … in %” value amounted to 59%. Also, the “tail clip, effect” value with mice [3] (200 mg/kg maximum dose) is reported as “.phi”. The “carrageenin oedema, effect at maximum dose administered” value (“carrageenin oedema, effect” for short) with adult rats [5] (setting [9]) was “.phi”. In “LD50 mice” (ip, intraperitoneal), this compound yielded a 50% lethal dose (LD50) of over 1000 mg/kg. In addition, the “anti-coughing action, effect” value in the data set with guinea pigs (200 mg/kg maximum dose) is given as “.phi”.
Regarding `O=C(O)Cc1sc(Nc2c(Cl)cccc2Cl)nc1-c1ccccc1` [LR 396, [2-n-(2', 6'-dichlorophenyl)-amino-4-phenyl-thiazol-5-yl]-acetic acid], the “stretching acetic acid, effect” value in the data set on mice [1] (100 mg/kg maximum dose) was 26%. In the data set on rats [8], the “anti-ulcer action, protected rats in %” value worked out at 40% and the “anti-ulcer action, reduction … in %” value came out at 45%. In addition, the “carrageenin oedema, effect” value in the data set on adult rats [5] (setting [9]) is “.phi”. Further, in the data set “LD50 mice” (ip, intraperitoneal), the median lethal dose (LD50) was over 1000 mg/kg.
In the case of `CCN(CC)c1nc(-c2ccc(Cl)cc2)c(CC(=O)O)s1` [LR 407, (2-n,n-diethylamino-4-p-chlorophenyl-thiazol-5-yl)-acetic acid], the 50% effective dose (ED50) is 26 mg/kg in the data set with mice [1]; 48 mg/kg in the data set with mice [3] (Mus musculus); over 400 mg/kg in the data set with rats [4]; 60 mg/kg with adult rats [5] (ip, intraperitoneal); 120 mg/kg in the data set on adult rats [5] (oral); 170 mg/kg with adult rats [6]. The ED50 in the data set with rats [7] (Rattus norvegicus, read-out: anti-pyretic action rats ED50) worked out at 73 mg/kg; in the data set with guinea pigs (Cavia porcellus, ip, read-out: anti-coughing action guinea pigs ED50), 34 mg/kg. Further, the LD50 in “LD50 rats” (ip, intraperitoneal) was 385 mg/kg; in the data set “LD50 rats” (po), over 1500 mg/kg; in “LD50 mice” (ip, intraperitoneal) it was 400 mg/kg; in the data set “LD50 mice” (oral), 1260 mg/kg. For the same compound, the “anti-ulcer action, reduction … in %” value with rats [8] is recorded as 23%.
As for `CCN(CC)CCNC(=O)Cc1sc(N)nc1-c1ccc(Cl)cc1` [LR 450, (2-amino-4-p-chlorophenyl-thiazol-5-yl)-N-(N',N' diethylaminoethyl)-acetamide], the “stretching acetic acid, effect” value with mice [1] (100 mg/kg maximum dose) came to 27%. For the same compound, the LD50 in the data set “LD50 rats” (ip, intraperitoneal) came to 47 mg/kg; in “LD50 rats” (po), 915 mg/kg; in “LD50 mice” (ip, intraperitoneal) it was 43 mg/kg; in the data set “LD50 mice” (oral), 238 mg/kg. For the same compound, in the data set on rats [8], the “anti-ulcer action, protected rats in %” value was found to be 65%. The “anti-ulcer action, reduction … in %” value in the data set with rats [8] turned out to be 69%. Moreover, the “tail clip, effect” value with mice [3] (50 mg/kg maximum dose) is given as “.phi”. Also, the “Randall Selitto, effect at maximum dose administered” value with rats [4] (100 mg/kg maximum dose) was 18%. The “carrageenin oedema, effect” value with adult rats [5] (intraperitoneal, 6 mg/kg maximum dose) was 36%; in the data set on adult rats [5] (oral, 100 mg/kg maximum dose) it was 35%. For the same compound, it took a dose of 100 mg/kg to reach the 50% effect level with adult rats [6] (ED50). The “anti-pyretic action, effect” value with rats [7] (100 mg/kg maximum dose) came to 38%. Also, the “anti-coughing action, effect” value in the data set with guinea pigs (12 mg/kg maximum dose) is on record as “.phi”.
